The supplement of paper PMC8671470
± gives the standard deviation of the averaged measurements.

What was measured:
Conditions in all cases: 72 h
BV-173 [1] = test system: BV-173
How it was run: (§1)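 The IC50 was read from log-logistic dose–response fits. Fifteen myeloid leukaemia lines were exposed for 72 h at 37 °C with 5% CO2 to five tenfold doses from 1 to 10,000 nM in duplicate. ATP luminescence, normalised to vehicle and to a 10 µM positive control, was fitted with four parameters.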

HEL [2] = test system: HEL
How it was run: as §1

HL-60 [3] = test system: HL-60
How it was run: as §1

K-562 [4] = test system: K-562
How it was run: as §1

KCL-22 [5] = test system: KCL-22
How it was run: as §1

KG-1 [6] = test system: KG-1
How it was run: as §1

KU-812 = test system: KU-812
How it was run: as §1

LAMA-84 [7] = test system: LAMA-84
How it was run: as §1

ML-2 [8] = test system: ML-2
How it was run: as §1

MOLM-13 = test system: MOLM-13
How it was run: as §1

MV4-11 [9] = test system: MV4-11
How it was run: as §1

Mono-Mac-6 [10] = test system: Mono-Mac-6
How it was run: as §1

NOMO-1 = test system: NOMO-1
How it was run: as §1

SHI-1 [11] = test system: SHI-1
How it was run: as §1

THP-1 = test system: THP-1
How it was run: as §1

HL-60 [12] = test: cell viability (% survival relative to DMSO control); higher = less cytotoxic
How it was run: (§2)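 A rescreen of the full library used HL-60 cells in RPMI 1640 with 10% FBS on 384-well plates, run in duplicate at five tenfold concentrations (1–10,000 nM). Each screen included DMSO or 100 nM of one of three metabolic inhibitors and ran 72 h at 37 °C, 5% CO2. CellTiter-Glo viability was scaled between DMSO and 10 μM proteasome-inhibitor wells. Any area under the curve comes from four-parameter log-logistic fits with drc and PharmacoGx.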

BV-173 [13] = test: cell viability (% survival relative to DMSO control, bortezomib = 0%); higher = less cytotoxic
How it was run: (§3)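 Seeding density for each of the 10 AML and 5 CML cell lines was titrated to the linear growth range. Cells went into 384-well plates pre-printed in duplicate with compounds at 1, 10, 100, 1000 or 10000 nM and were held for 72 h at 37 °C with 5% CO2. CellTiter-Glo luminescence then provided the readout. Percent survival is expressed relative to vehicle at 100% and a 10 µM positive control at 0%, averaged over duplicates.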

HEL [14] = test: as above
How it was run: as §3

HL-60 [15] = test: as above
How it was run: as §3

K-562 [16] = test: as above
How it was run: as §3

KCL-22 [17] = test: as above
How it was run: as §3

KG-1 [18] = test: as above
How it was run: as §3

LAMA-84 [19] = test: as above
How it was run: as §3

ML-2 [20] = test: as above
How it was run: as §3

MV4-11 [21] = test: as above
How it was run: as §3

Mono-Mac-6 [22] = test: as above
How it was run: as §3

SHI-1 [23] = test: as above
How it was run: as §3

HL-60 [24] = test: area under dose-response curve (viability, 1 nM-10 uM) (fraction (0-1)); higher = more sensitive
How it was run: as §2

CCCCCCCCCCCCC/C=C/[C@@H](O)[C@H](CO)N(C)C [N,N-Dimethylsphingosine]
Conditions	IC50 (cell viability) [µM]
BV-173 [1]	1.67
HEL [2]	2.98
HL-60 [3]	> 10
K-562 [4]	> 10
KCL-22 [5]	2.78
KG-1 [6]	3.58
KU-812	> 10
LAMA-84 [7]	> 10
ML-2 [8]	3.46
MOLM-13	> 10
MV4-11 [9]	> 10
Mono-Mac-6 [10]	> 10
NOMO-1	> 10
SHI-1 [11]	> 10
THP-1	> 10

cell viability [%], HL-60 [12]
Conditions	0.001 µM	0.01 µM	0.1 µM	1 µM	10 µM
co-treatment: AZD3965 100 nM	95.3 ± 2.7	103 ± 7.5	100 ± 2.3	100.26 ± 0.045	-1.76 ± 1.1
co-treatment: DMSO vehicle	98.6 ± 0.98	98.5 ± 4	102 ± 6.8	97.42 ± 0.24	54.1 ± 66
co-treatment: GSK2194069 100 nM	90.2 ± 1.8	98.3 ± 5.2	103 ± 6	97.23 ± 0.41	86.6 ± 7.7
co-treatment: pictilisib 100 nM	87.6 ± 2.9	112 ± 13	106 ± 3.5	96.1 ± 2.2	62.7 ± 10

Conditions	area under dose-response curve, co-treatment: AZD3965 100 nM	area under dose-response curve, co-treatment: DMSO vehicle	area under dose-response curve, co-treatment: GSK2194069 100 nM	area under dose-response curve, co-treatment: pictilisib 100 nM	cell viability, 1 nM [%]	cell viability, 10 nM [%]	cell viability, 100 nM [%]	cell viability, 1000 nM [%]	cell viability, 10000 nM [%]
BV-173 [13]	–	–	–	–	93	89.7	98.7	74.2	22.5
HEL [14]	–	–	–	–	96.2	94.6	103	96.2	0.109
HL-60 [15]	–	–	–	–	90.6	84.7	100	105	88.9
HL-60 [24]	0.132	0.132	< 0.0301	0.0441	–	–	–	–	–
K-562 [16]	–	–	–	–	97.4	95.2	103	104	85.6
KCL-22 [17]	–	–	–	–	95.8	98	101	91.3	1.85
KG-1 [18]	–	–	–	–	92.2	96.8	101	82.7	37.4
LAMA-84 [19]	–	–	–	–	101	96.7	106	91.3	93.3
ML-2 [20]	–	–	–	–	95.1	96.8	97.7	107	-0.179
MV4-11 [21]	–	–	–	–	94.2	102	95	117	95.8
Mono-Mac-6 [22]	–	–	–	–	95.1	91.7	97.9	89.4	70
SHI-1 [23]	–	–	–	–	101	97.8	104	97.8	83.8

CCCCCCCNC=O [N-Heptyl-Formamide]
Conditions	IC50 (cell viability) [µM]
BV-173 [1]	> 10
HEL [2]	> 10
HL-60 [3]	> 10
K-562 [4]	> 10
KCL-22 [5]	> 10
KG-1 [6]	> 10
KU-812	> 10
LAMA-84 [7]	> 10
ML-2 [8]	> 10
MOLM-13	> 10
MV4-11 [9]	> 10
Mono-Mac-6 [10]	> 10
NOMO-1	> 10
SHI-1 [11]	> 10
THP-1	> 10

cell viability [%], HL-60 [12]
Conditions	0.001 µM	0.01 µM	0.1 µM	1 µM	10 µM
co-treatment: AZD3965 100 nM	104.63 ± 0.079	106 ± 12	98 ± 6.2	95 ± 12	97.3 ± 4.2
co-treatment: DMSO vehicle	101.3 ± 0.22	78.3 ± 35	98.6 ± 5	97.7 ± 4.5	101 ± 2.9
co-treatment: GSK2194069 100 nM	99.7 ± 2.1	103 ± 2.5	99.6 ± 2.1	97.7 ± 8.2	94 ± 2.8
co-treatment: pictilisib 100 nM	99.8 ± 14	108 ± 15	78.6 ± 23	102 ± 4.4	100 ± 6.2

Conditions	area under dose-response curve, co-treatment: AZD3965 100 nM	area under dose-response curve, co-treatment: DMSO vehicle	area under dose-response curve, co-treatment: GSK2194069 100 nM	area under dose-response curve, co-treatment: pictilisib 100 nM	cell viability, 1 nM [%]	cell viability, 10 nM [%]	cell viability, 100 nM [%]	cell viability, 1000 nM [%]	cell viability, 10000 nM [%]
BV-173 [13]	–	–	–	–	112	98.3	90.4	123	95.5
HEL [14]	–	–	–	–	109	97.9	80.9	112	92.1
HL-60 [15]	–	–	–	–	108	115	95.3	143	91.7
HL-60 [24]	< 0.0301	< 0.0301	< 0.0301	< 0.0301	–	–	–	–	–
K-562 [16]	–	–	–	–	116	108	99	122	96.3
KCL-22 [17]	–	–	–	–	101	109	90.1	113	98.8
KG-1 [18]	–	–	–	–	99.6	110	86.4	108	95.5
LAMA-84 [19]	–	–	–	–	101	99.3	104	112	98.1
ML-2 [20]	–	–	–	–	121	106	88.8	117	90.9
MV4-11 [21]	–	–	–	–	106	105	93.7	105	94.4
Mono-Mac-6 [22]	–	–	–	–	110	97.3	101	114	96.8
SHI-1 [23]	–	–	–	–	109	104	101	114	97.1
